Measurements taken from US12350273B2, “Treatment of SMA” (Hoffmann-La Roche Inc., priority 2017, dated 2025).
Read-outs that look alike come from different tables or passages of the source.

Columns and labels:
[1] = Study BP39055 Part 1: pharmacokinetics (AUC0-24h,ss) in SMA patients; assay type: in vivo, human; conditions: for AUC(0-t): human, in vivo, read-out: estimated AUC0-24h,ss, median
Text: Study BP39055 is a two-part operationally seamless, multi-center, randomized, placebo-controlled, double-blind study to investigate the safety, tolerability, pharmacokinetics (PK), pharmacodynamics (PD) and efficacy of RO7034067 in Type 2 and 3 spinal muscular atrophy (SMA) patients. The study consists of an exploratory dose-finding part (Part 1) and a confirmatory part (Part 2).
The primary objective of Part 1 is to evaluate the safety, tolerability, PK and PD of RO7034067 in patients with Type 2 and Type 3 (ambulant or non-ambulant) SMA, and to select the dose for Part 2 of the study.
Part 1 was a double-blinded, placebo-controlled, randomized (2:1 RO7034067:placebo), exploratory dose-finding study in Type 2 and Type 3 (ambulant and non-ambulant) SMA patients. This will be followed by an open-label extension (OLE) at the same dose as selected for Part 2 of the study.
Part 1 of the study enrolled patients in two age groups: • Group A: adolescent and adult patients aged 12 25 years • Group B: children aged 2 11 years RO7034067 dose levels were investigated in a staggered, dose escalation manner in both age groups.
The dose recommended by the IMC for this age group according to the target AUC0-24 h,ss of 700 ng[…]h/mL was 0.02 mg/kg (see IMC recommendation of 12 Dec. 2016 in Appendix 1); 10 patients aged 3-11 years were enrolled in Cohort B1. • At the same time point (i.e., once safety and tolerability were confirmed based on the review of at least 4 weeks of treatment at 3 mg once daily in 9 patients in Cohort A1), enrolment was opened to another cohort of 9 adult and adolescent patients (Cohort A2) receiving RO7034067 5 mg once daily (see IMC recommendation of 19 Jan. 2017 in Appendix 1). As per protocol, the higher dose level was determined such as to achieve maximum SMN protein increase, without exceeding the exposure cap (Cmax 400 ng/mL; mean AUC0 24 h,ss 2000 ng[…]h/mL); 10 patients aged 13[…]24 years were enrolled in Cohort A2. • Based on the review of a minimum of 4 weeks of treatment at 0.02 mg/kg in 9 patients enrolled in Cohort B1, the following recommendations were made by the IMC: i) to increase the dose in these patients to 0.05 mg/kg without exceeding a cap dose of 3 mg, and ii) to enroll a minimum of 9 additional patients aged 2[…]11 years at a dose of 0.05 mg/kg without exceeding a cap dose of 3 mg (Cohort B2), targeting at least 5 patients aged 2[…]6 years (see IMC recommendation of 13 Mar. […] At the same time point, enrollment was opened to another cohort of 9 patients at the dose of 0.25 mg/kg without exceeding a cap dose of 5 mg (Cohort B3), determined such as to achieve maximum Survival of Motor Neuron (SMN) protein increase, without exceeding the exposure cap (Cmax 400 ng/mL; mean AUC0-24 h,ss 2000 ng[…]h/mL); 10 patients aged 2[…]11 years were enrolled in Cohort B3. • Upon completion of at least 12 weeks of placebo-controlled treatment by a minimum of 9 patients of each cohort, the IMC reviewed all available data from the cohort to make the decision to switch placebo patients to active treatment at the dose tested in their respective cohort. Dates of the IMC decisions to switch placebo patients to active treatment in the respective cohorts are provided in Section 1.3. • For the last cohort in Part 1 (Cohort B3), all available safety, tolerability, PK and PD data following completion of a minimum of 4 weeks treatment by the 9th patient (including all available data for the 10th patient of the last cohort who was enrolled approximately 1 week after the 9th patient, and all available data from all previous cohorts) were reviewed by the IMC in order to select the dose to be administered in Part 2 of the study. This dose selection was confirmed by the external iDMC following review of the same data package. […]

FoxM1 = experiment: Alternative splicing of FoxM1 in SMA Type 1 patient fibroblasts (RT-qPCR); assay type: cell-based; conditions: Homo sapiens, Fibroblast, 24 hours, read-out: EC50 for FoxM1 full-length (FL) mRNA
Description: FIG. 4: Alternative Splicing of FoxM1 In Vitro • SMA Type 1 patient fibroblasts were treated with RO7034067 for 24 hours, and FoxM1 full-length (FL) and exon 9-lacking (Δ9) mRNAs were analyzed by RT-qPCR. Data represent means±SEM of 6 repetitions and are expressed as fold change vs. untreated controls.
FoxM1, a gene alternatively spliced by other splicing modifier compounds, encodes a cell cycle regulator. […] Increased abundance of the FoxM1A isoform, together with decreased abundance of FoxM1 isoforms lacking exon 9, has the capability to disturb and inhibit cell cycle progression if splicing changes are at a level that is biologically significant. Thus, RO7034067 acts in a similar way on the SMN2 and FoxM1 splicing machinery, but with opposing outcomes with regard to protein function. MADD, a gene involved in apoptosis processes, has also been identified as a secondary splice target.

FMO3 = target: T1, FMO3 (Homo sapiens, UniProt P31513); experiment: Elimination pathway; assay type: in vitro ADME
T1 sequence (P31513 1-532): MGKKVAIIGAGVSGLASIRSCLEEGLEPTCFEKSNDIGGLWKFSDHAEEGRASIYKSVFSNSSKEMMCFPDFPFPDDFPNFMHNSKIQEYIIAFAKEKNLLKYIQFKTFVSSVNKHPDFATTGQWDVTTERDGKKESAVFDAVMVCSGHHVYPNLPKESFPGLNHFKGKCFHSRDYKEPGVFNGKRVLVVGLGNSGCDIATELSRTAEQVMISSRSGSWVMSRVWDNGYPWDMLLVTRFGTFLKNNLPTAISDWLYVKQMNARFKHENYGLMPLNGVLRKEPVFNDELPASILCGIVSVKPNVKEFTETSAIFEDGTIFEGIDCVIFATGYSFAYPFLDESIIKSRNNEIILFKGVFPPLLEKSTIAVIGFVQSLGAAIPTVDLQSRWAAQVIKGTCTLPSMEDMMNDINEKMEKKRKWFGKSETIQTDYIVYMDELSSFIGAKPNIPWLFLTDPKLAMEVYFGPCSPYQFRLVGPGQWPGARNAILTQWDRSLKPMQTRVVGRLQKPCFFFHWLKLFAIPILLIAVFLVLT

With `Cc1cn2nc(-c3cc(=O)n4cc(N5CCNC6(CC6)C5)ccc4n3)cc(C)c2n1` [RO7034067, 7-(4,7-diazaspiro[2.5]octan-7-yl)-2-(2,8-dimethylimidazo[1,2-b]pyridazin-6-yl)pyrido[1,2-a]pyrimidin-4-one] as the molecule, how does the AUC(0-t) ([1]; 2-11 yr, 0.02 mg/kg) read?
Its AUC(0-t) is 133 ng·h/mL.

What about the AUC(0-t) ([1]; 2-11 yr, 0.05 mg/kg) of the same molecule?
Its AUC(0-t) is 407 ng·h/mL.

What about the AUC(0-t) ([1]; 2-11 yr, 0.15 mg/kg) of the same molecule?
The AUC(0-t) was 822 ng·h/mL.

What about the AUC(0-t) ([1]; 2-11 yr, 0.25 mg/kg) of the same molecule?
Its AUC(0-t) is 1450 ng·h/mL.

What about the AUC(0-t) ([1]; 12-25 yr, 3 mg) of the same molecule?
The AUC(0-t) was 1040 ng·h/mL.

What about the AUC(0-t) ([1]; 12-25 yr, 5 mg) of the same molecule?
Its AUC(0-t) is 1610 ng·h/mL.

And the “predicted mean exposure (AUC0-24h,ss)” value ([1]; selected BP39055 Part 2 dose, all patients 2-25 years of age)?
The value was 1690 ng·h/mL.

And the EC50 (FoxM1)?
The EC50 was 67 ± 32 nM.

And the elimination pathway (FMO3)?
Its elimination pathway is “FMO3 participates on the elimination path way”.
